In patent US20250000863A1, “COMBINATION THERAPIES OF KRAS G12D INHIBITORS WITH SOS1 INHIBITORS” (MIRATI THERAPEUTICS, INC., priority 2021, published 2025):

Test system: AsPC-1 cells
Experiment: AsPC-1 TGI-70 xenograft tumor volume study
Format: in vivo, nude/nude mice
Conditions: for Average Tumor Volumes: MRTX0902 50 mg/kg BID daily, alone or combined, 5 mice per group
From the text: Experimental Procedures. 20 nude/nude mice were inoculated with AsPC-1 cells in the right hind flank. When the tumors reached ˜200 mm^3 four treatment groups were established with five mice per group.

Row | Compound | tumor regression (Day 13, MRTX1133 30 mg/kg BID daily, alone or with MRTX0902 twice daily) [%] | tumor growth inhibition (Day 13, MRTX0902 50 mg/kg BID daily as a single agent) [%] | Average Tumor Volumes (Study Day 1, MRTX1133 30 mg/kg BID daily) [mm^3] | Average Tumor Volumes (Study Day 6, MRTX1133 30 mg/kg BID daily) [mm^3] | Average Tumor Volumes (Study Day 9, MRTX1133 30 mg/kg BID daily) [mm^3] | Average Tumor Volumes (Study Day 13, MRTX1133 30 mg/kg BID daily) [mm^3] | Average Tumor Volumes (Study Day 16, MRTX1133 30 mg/kg BID daily) [mm^3] | Average Tumor Volumes (Study Day 20, MRTX1133 30 mg/kg BID daily) [mm^3] | Average Tumor Volumes (Study Day 23, MRTX1133 30 mg/kg BID daily) [mm^3]
1 | C#Cc1c(F)ccc2cc(O)cc(-c3ncc4c(N5C[C@H]6CC[C@@H](C5)N6)nc(OC[C@@]56CCCN5C[C@H](F)C6)nc4c3F)c12 [MRTX1133, 4-(4-((1R,5S)-3,8-diazabicyclo[3.2.1]octan-3-yl)-8-fluoro-2-(((2R,7aS)-2-fluorohexahydro-1H-pyrrolizin-7a-yl)methoxy)pyrido[4,3-d]pyrimidin-7-yl)-5-ethynyl-6-fluoronaphthalen-2-ol] | 26 | – | – | – | – | – | – | – | –
2 | Cc1c(C#N)cccc1[C@@H](C)Nc1nnc(C)c2cnc(N3CCOCC3)cc12 [MRTX0902] | – | 26 | 194.8 | 215.066 | 220.892 | 262.374 | 316.164 | 387.59 | 480.782
